# Test results published in patent US9867794B2, “Regulation of osteopontin” (Pathologica LLC, priority 2007, dated 2018).
# Where “and” joins values, the source holds several entries; their conditions need not be identical. Equal entries are not always repeated.
# Key:
# G1P3 = test: Quantitative RT-PCR, unsorted mononuclear cells, G1P3; assay type: cell-based, human
# Procedure: To evaluate the effect of MGBG on gene expression, blood samples were obtained from patients (N=18, 10 HIV-infected and 8 Healthy Controls). Mononuclear cells were isolated via Percoll gradient centrifugation. The cells were split into two tubes, one treated with 10 μM of MGBG and the other non-treated. The cells were then cultured overnight in RPMI media plus 10% fetal bovine serum at 37 C under non-adherent conditions, collected, lysed using Trizol solution, and total RNA prepared according to manufacturer's instructions (Invitrogen, Carlsbad, Calif.).
# Approximately 200 ng of total RNA prepared from each sample was converted to cDNA using the First Strand cDNA Synthesis Kit for RT-PCR [AMV] kit (Roche Applied Diagnostics, Indianapolis, Ind.) according to manufacturer's instructions. Around 5 ng of cDNA sample was then used for PCR performed on a LightCycler (Roche Applied Diagnostics, Indianapolis, Ind.) using the LightCycler FastStart DNA Master SYBR Green I kit. PCR conditions are as follows: 1 cycle of denaturation at 95° C. for 10 minutes, followed by 45 cycles of 95° C. for 10 seconds, 68° C. for 10 seconds, and 72° C. for 16 seconds.
# The sequences of gene-specific primers evaluated are listed below. All samples were also amplified with the human β-actin LightCycler-Primer set (Roche Diagnostics).
# mononuclear cells = test: Microarray analysis, number of probes changed; assay type: cell-based, human; details: average signals, MGBG vs untreated samples
# Procedure: (§1) Blood samples were obtained from HIV infected patients (N=9) with positive viral load and reduced CD4 counts, and non-HIV infected, healthy controls (N=6). Blood was collected into heparin anticoagulant tubes and mononuclear cells were isolated by Percoll gradient centrifugation. The cells from each sample were split into 2: one-half receives MGBG at concentration of 10 μM and the other half received no treatment. All samples were then cultured overnight in RPMI media with 10% fetal bovine serum at 37° C. under non-adherent conditions. The next day cells were collected by centrifugation, washed one time with PBS, and lysed by resuspension in TRIZOL, and total RNA was prepared according to manufacturer's instructions (Invitrogen, Carlsbad, Calif.). […] The RNA was then amplified for microarray analysis using a 2 cycle amplification protocol according to the manufacturer's instructions (Affymetrix, Santa Clara, Calif.). The amplified RNAs were then hybridized to Human Genome U133 plus 2.0 microarrays (Affymetrix) and expression data was obtained using an Affymetrix scanner and GCOS protocols. Microarray data was analyzed with GeneSpring Microarray Suite. Results were normalized using a set of 100 probe sets determined by the manufacturer to have relatively invariant expression across most cell types.
# CD14/16++ cells = test: Yield of CD14/16++ cells in culture, flow cytometry; assay type: cell-based, human; details: 10 μM MGBG; for % Reduction 14/16, Average: 5th day
# CD14 = test: QRT-PCR in CD14/CD16-separated cell fractions, CD14 RNA; assay type: cell-based, human; details: CD14/CD16++ macrophages, 10 μM MGBG, p=0.02
# Procedure: The changes induced by MGBG in different blood cell types were determined for osteopontin and adenosine deaminase and 7 other genes. For this experiment, blood samples were obtained from 6 healthy controls (3 men/3 women from 20 to 55 years of age) and mononuclear cells were isolated via Percoll gradient centrifugation. The cells were then incubated for 3 hours in RPMI media plus 10% fetal bovine serum at 37 C. At that point MGBG was added to 10 μM to half of each sample and then the cells were incubated at 37 C for 20 more hours. The cells were then bound to magnetic beads coated with antibodies to human CD16. Bound cells (CD16 expressing) were separated from unbound cells using an AutoMACs according to manufacturer's instructions (Miltenyi, Auburn Calif.). Then CD16+ cells are released from the magnetic beads and both the CD16+ and CD16− cells are combined with magnetic beads coated with antibodies to human CD14. Antibody bound and unbound cells were then separated using the AutoMACs machine. […] Cells that neither express CD16 nor CD14 (the −/− Cells). This is mostly T lymphocytes; 2. Cells that only express CD16. This includes contaminating granulocytes not removed by Percoll centrifugation and CD16+ monocytes with very low CD14 expression; 3. […] After separation, cells of each fraction are washed with PBS and the number of viable cells determined by trypan blue exclusion. […]
# SGNE1 = test: Microarray analysis of mononuclear cells, SGNE1; assay type: cell-based, human; details: for SGNE1 signal +, Average: 10 μM MGBG
# Procedure: as §1
# SPP1 = test: Microarray analysis of mononuclear cells, SPP1; assay type: cell-based, human; details: for SPP1 signal +, Average: 10 μM MGBG
# Procedure: as §1
# SIVmac251 = test: SIV-infected, CD8-depleted rhesus macaques treated with MGBG: disease; assay type: in vivo
# Procedure: These monkeys were then treated with MGBG as described.
# ADA = test: Microarray analysis of mononuclear cells, ADA; assay type: cell-based, human; details: for ADA signal +, Average: 10 μM MGBG
# Procedure: as §1
# IL24 = test: Microarray analysis of mononuclear cells, IL24; assay type: cell-based, human; details: for IL24 signal +, Average: 10 μM MGBG
# Procedure: as §1
# CD14+ cells = test: Yield of CD14+ cells in culture, flow cytometry; assay type: cell-based, human; details: 10 μM MGBG; for % Reduction 14, Average: 5th day
# HeLa cell = test: Migration assay, HeLa cell invasion into a Matrigel matrix; assay type: cell-based; details: 10 μM MGBG
# Procedure: Additionally, cells being targeted by MGBG were investigated. […] To elucidate the effects of MGBG and OPN on cell motility, migration assays were conducted. MGBG at 10 μM inhibited macrophage Osteopontin production from >200 ng/mL to nondetectable levels while simultaneously inhibiting HeLa cell invasion into a Matrigel matrix.
# FCGR1a = test: Microarray analysis of mononuclear cells, FCGR1a; assay type: cell-based, human; details: for FCGR1a signal +, Average: 10 μM MGBG
# Procedure: as §1
# [1] = 5th day of culture, individual donor samples (HIV or healthy)
# [2] = average of control samples (C6-, M6-177)
# [3] = 10 μM, individual donor samples
# [4] = presence of 10 μM MGBG overnight, individual donor samples
structure (smiles),measurement,setting,value
"CC(/C=N/NC(=N)N)=N\NC(=N)N [MGBG, 1,1′ [methylethanediylidene]dinitrilodiguanidine]",Fold change G1P3 by QRT-PCR,"G1P3; 10 μM MGBG overnight, individual samples",1.92 fold and −1.25 fold (2×) and 1.31 fold and −2.03 fold and −1.14 fold (2×) and −2.04 fold and 2.13 fold and 1.22 fold (2×) and −2.99 fold and −6.63 fold and −1.95 fold and −2.85 fold and 1.47 fold and −1.66 fold and 1.68 fold
same,G1P3 AVERAGE,"G1P3; 10 μM MGBG, all samples",0.96 fold
same,G1P3 MAX,"G1P3; 10 μM MGBG, all samples",2.13 fold
same,G1P3 MIN,"G1P3; 10 μM MGBG, all samples",−6.63 fold
same,probes down-regulated at least 1.5 fold,mononuclear cells,489 probes
same,probes up-regulated at least 1.5 fold,mononuclear cells,382 probes
same,% Reduction 14/16,CD14/16++ cells; [1],26% and 53% and 91% and 54% and 61% and <0% and 71%
same,"% Reduction 14/16, Average",CD14/16++ cells; average of HIV samples,60.3%
same,"% Reduction 14/16, Average",CD14/16++ cells; average of healthy samples,57.5%
same,CD14 RNA median signal relative to no MGBG,CD14,0.55
same,"SGNE1 signal +, Average",SGNE1; average of HIV samples,23
same,"SGNE1 signal +, Average",SGNE1; [2],13
same,"SGNE1 fold change, ON/MGBG ratio (down-regulation)",SGNE1; [3],3.3 fold and 7.4 fold and 1.9 fold and 14.4 fold and 53.3 fold and 4.7 fold and 9.3 fold and 58.8 fold and 2.4 fold and 3.0 fold and 45.5 fold and 159.8 fold and 10.1 fold and 63 fold and 0.8 fold
same,samples with 2 fold or greater reductions in SGNE1 signal,SGNE1; of the 15 samples evaluated,13
same,SGNE1 signal +,SGNE1; [4],17 and 7 and 10 and 13 (3×) and 12 and 2 (2×) and 3 and 45 and 14 and 8 and 79 and 44
same,"SPP1 signal +, Average",SPP1; average of HIV samples,498
same,"SPP1 signal +, Average",SPP1; [2],633
same,"SPP1 fold change, ON/MGBG ratio (down-regulation)",SPP1; [3],60.5 fold and 47.8 fold and 11.5 fold and 43.9 fold and 0.7 fold and 7.0 fold and 2.3 fold and 438.8 fold and 1.4 fold and 5.7 fold and 5.9 fold and 68.0 fold and 57.9 fold and 4.2 fold and 1.2 fold
same,samples with 2 fold or greater reductions in SPP1 signal,SPP1; of the 15 samples evaluated,12
same,SPP1 signal +,SPP1; [4],1480 and 113 and 34 and 143 and 458 and 53 and 81 and 264 and 232 and 1519 and 1647 and 64 and 22 and 1684 and 487
same,SIV-associated macrophages in the frontal cortex,"SIVmac251; 4 doses of MGBG, compared to non-treated",absence of SIV-associated macrophages
same,macrophage infiltration in brains,"SIVmac251; FIG. 9, treated infected macaques",no pathology was observed
same,illness (AIDS and dementia),"SIVmac251; both trials, treated animals",none of the treated animals became ill
same,SIVE or DRG infiltration,"SIVmac251; first trial, 200, 300, 400 mg/m^2 weekly, 2 treated animals",no indications of SIVE or DRG infiltration
same,SIV disease,"SIVmac251; second trial, bi-weekly 250 mg/m^2, 2 treated animals",no evidence for SIV disease
same,"ADA signal +, Average",ADA; average of HIV samples,4029
same,"ADA signal +, Average",ADA; [2],5520
same,"ADA fold change, MGBG/ON ratio (up-regulation)",ADA; [3],3.2 fold (2×) and 2.9 fold and 5.6 fold and 3.6 fold (2×) and 3.7 fold and 4.2 fold and 51.2 fold and 14.6 fold and 5.9 fold and 2.0 fold and 18.3 fold and 2.3 fold and 22.3 fold
same,ADA regulation by MGBG,ADA; all samples tested,consistently up-regulated
same,ADA signal +,ADA; [4],769 and 6724 and 6874 and 1964 and 7488 and 5384 and 2900 and 5895 and 5781 and 6428 and 6731 and 1845 and 4290 and 832 and 5472
same,"IL24 signal +, Average",IL24; average of HIV samples,560
same,"IL24 signal +, Average",IL24; [2],598
same,"IL24 fold change, MGBG/ON ratio (up-regulation)",IL24; [3],5.4 fold and 1.2 fold (2×) and 3.3 fold and 0.3 fold and 0.5 fold and 0.2 fold and 5.5 fold and 2.6 fold and 4.5 fold (2×) and 0.03 fold and 192.1 fold and 0.6 fold and 26.0 fold
same,IL24 regulation after MGBG exposure,IL24; HIV infected samples but not controls,upregulated
same,IL24 signal +,IL24; [4],111 and 85 and 1940 and 178 and 375 and 578 and 206 and 1549 and 925 and 163 and 166 and 350 and 1364 and 59 and 577
same,% Reduction 14,CD14+ cells; [1],26% (2×) and 21% and 53% and 76% and 31% and <0% and 58%
same,"% Reduction 14, Average",CD14+ cells; average of HIV samples,46.8%
same,"% Reduction 14, Average",CD14+ cells; average of healthy samples,28.5%
same,HeLa cell invasion into a Matrigel matrix,HeLa cell,inhibiting
same,"FCGR1a signal +, Average",FCGR1a; average of HIV samples,439
same,"FCGR1a signal +, Average",FCGR1a; [2],608
same,"FCGR1A fold change, ON/MGBG ratio (down-regulation)",FCGR1a; [3],9.2 fold and 1.3 fold and 0.3 fold (3×) and 0.9 fold (2×) and 0.1 fold and 4.3 fold and 2.7 fold and 2.5 fold and 2.2 fold and 0.4 fold and 12.3 fold and 1.0 fold
same,samples with FCGR1A down-regulated more than 2 fold,FCGR1a; HIV samples,6 of 9
same,FCGR1a signal +,FCGR1a; [4],415 and 461 and 59 and 800 and 1561 and 136 and 51 and 612 and 53 and 1362 and 1435 and 264 and 33 and 14 and 347
